The molecules below were run against T1, CSF-1R (Homo sapiens, UniProt P07333) (assay: CSF-1R In Vitro AlphaScreen Assay). Settings: purified His-tagged kinase domain of CSF-1R, pEY substrate, 90 μM ATP.
T1 construct: amino acids 568-912, GeneBank ID NM_005211; His; made in house; host or cells: baculovirus infected SF+Express insect cells
T1 sequence (P07333 568-912): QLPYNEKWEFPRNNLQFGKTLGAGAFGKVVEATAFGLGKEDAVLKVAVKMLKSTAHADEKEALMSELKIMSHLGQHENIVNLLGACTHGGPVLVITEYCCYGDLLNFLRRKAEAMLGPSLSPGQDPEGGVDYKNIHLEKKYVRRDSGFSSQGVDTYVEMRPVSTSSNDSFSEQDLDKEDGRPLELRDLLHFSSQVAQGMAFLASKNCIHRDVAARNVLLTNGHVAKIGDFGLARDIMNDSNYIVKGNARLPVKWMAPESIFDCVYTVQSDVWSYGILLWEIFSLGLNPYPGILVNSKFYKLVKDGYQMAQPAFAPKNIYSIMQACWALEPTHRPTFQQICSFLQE
Assay type: biochemical
Protocol: CSF-1R In Vitro AlphaScreen Assay
Activity of purified CSF-1R was determined in vitro using an Amplified Luminescent Proximity Homogeneous Assay (ALPHA)(Perkin Elmer), which measures phosphorylation of the CSF-1R substrate, biotinylated poly-glutamine-tyrosine peptide (pEY-HTRF CisBio 61GT0BLD), as described below. The His-tagged kinase domain of CSF-1R (i.e., amino acids 568-912, GeneBank ID NM_005211; (see page 25 lines 13-19 of WO 2006/067445 for the sequence listing)) was purified from baculovirus infected SF+Express insect cells (1.4×10^6 cells/ml), French pressed and chromatographed through subsequent Qiagen Ni-NTA, Superflow Mono Q HR 10/10, and Superdex 200 SEC columns. Typical yield was 322 ug/l of cell pellet at >95% purity.
The phosphorylation of the CSF-1R substrate in the presence and absence of the compound of interest was determined. Briefly, 0.2 pM of purified CSF-1R, 5 nM pEY substrate, and compound were preincubated in 1× buffer for 30 minutes at 25° C. Reactions were initiated with addition of 90 μM adenosine triphosphate (ATP) in 1× buffer and incubated at 25° C. for 40 minutes and reactions stopped by addition of 5 μl of detection mix consisting of 136 mM NaCl, 102 mM ethylenediamine tetraacetic acid, 1.65 mg/ml BSA, 40 ug/ml Streptavidin donor beads (Perkin Elmer 6760620M), 40 ug/ml pEY100 acceptor beads (Perkin Elmer 6760620M). Plates were incubated at 25° C. for 18 hours in the dark. Phosphorylated substrate was detected by an EnVision plate reader (Perkin Elmer) 680 nm excitation, 520-620 nm emission. Data was graphed and IC50s calculated using Excel Fit (Microsoft).
`Cc1cc(C)cc(C(=O)Nc2ccc(Cl)c(C(=O)Nc3cnc(C(C)C)s3)c2)c1` [Example 20, 2-Chloro-5-[(3,5-dimethylbenzoyl)amino]-N-(2-isopropyl-1,3-thiazol-5-yl)benzamide] was tested, and the IC50 was 0.01 µM.
`CC(C)c1ncc(NC(=O)c2cc(NC(=O)c3cc(F)cc(C(F)(F)F)c3)ccc2Cl)s1` [Example 21, 2-Chloro-5-{[3-fluoro-5-(trifluoromethyl)benzoyl]amino}-N-(2-isopropyl-1,3-thiazol-5-yl)benzamide] showed an IC50 of 0.013 µM.
`CON(C)C(=O)c1ncc(NC(=O)c2cc(NC(=O)c3cccc(C(C)(C)C#N)c3)ccc2C)s1` [Example 15, 5-[(5-{[3-(1-Cyano-1-methylethyl)benzoyl]amino}-2-methylbenzoyl)amino]-N-methoxy-N-methyl-1,3-thiazole-2-carboxamide] gave an IC50 of 0.007 µM.
